SMILES strings stand for the structures.

The LD50 is the dose at which mortality reaches 50%. A lower LD50 goes with greater toxicity.

The test system of data set [1] is central benzodiazepine receptor sites. In words: test of affinity for central benzodiazepine receptor sites. The class given is binding. To be noted: relative to racemic zopiclone; technique of Blanchard and Julou.
Another data set has as its system writhing reflex. In words: writhing reflex test in mice. To be noted: relative to racemic zopiclone, technique of Zbinden and Randall. The class given is in vivo. Background: An intraperitoneal irritant provokes the stretching counted in writhing tests.
The test system of data set [2] is pentetrazol-induced convulsions. In words: test of antagonist activity with respect to pentetrazol-induced convulsions. The class given is in vivo. To be noted: relative to racemic zopiclone; technique of Everett and Richards.
The next data set deals with mice. In words: acute oral toxicity (LD50) in mice. To be noted: for toxicity compared with the racemate: relative to racemic zopiclone.
Another data set concerns animals. In words: pharmacological properties in animals. Type of data set: in vivo.
Data set [3] can be described thus: acute oral toxicity (LD50) in mice. To be noted: mouse, in vivo, po.

For the compound `CN1CCN(C(=O)O[C@H]2c3nccnc3C(=O)N2c2ccc(Cl)cn2)CC1` (single isomer, unassigned) [dextrorotatory isomer], the “potency of action, affinity for central benzodiazepine receptor sites” value in data set [1] is given as “approximately twice as active”. In addition, the “potency of action, writhing reflex test” value in the data set with writhing reflex is “approximately twice as active”. In addition, the “potency of action, antagonist activity with respect to pentetrazol-induced convulsions” value in data set [2] is on record as “approximately twice as active”. Moreover, the “toxicity (LD50)” value in the data set with mice (administered orally to mice) is listed as about 1.5 g/kg. Further, the “toxicity compared with the racemate” value in the data set with mice is “lower toxicity than that of the racemate”. Further, the “properties displayed in animals” value in the data set with animals was “hypnotic, sedative, anxiolytic, muscle-relaxant and anticonvulsant properties”.

In data set [3], `CN1CCN(C(=O)OC2c3nccnc3C(=O)N2c2ccc(Cl)cn2)CC1` (racemic) [zopiclone, 6-(5-chloro-2-pyridyl)-5-[(4-methyl-1-piperazinyl)carbonyloxy]-7-oxo-6,7-dihydro-5H-pyrrolo[3,4-b]pyrazine, reference compound] displayed an LD50 of about 850 mg/kg.

`CN1CCN(C(=O)O[C@@H]2c3nccnc3C(=O)N2c2ccc(Cl)cn2)CC1` (single isomer, unassigned) [laevorotatory isomer, reference compound]: in data set [1], the “potency of action, affinity for central benzodiazepine receptor sites” value is “almost inactive”. Besides, the “potency of action, writhing reflex test” value with writhing reflex was “almost inactive”. Moreover, in data set [2], the “potency of action, antagonist activity with respect to pentetrazol-induced convulsions” value was “almost inactive”. Moreover, in the data set on mice, the “toxicity compared with the racemate” value is listed as “more toxic than the racemate”.
